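The compound was tested at five concentrations on cells cultured in 96-well plates, with a 48-hour exposure period. GI50 is the concentration that inhibits growth by half.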 Calls of active or inactive are those of the source. Cut-off read from the data, not from the text of the source: active = GI50 up to about 1.1 µM and inactive = higher.
What was measured:
Experiment in all cases: NCI tumour cell line growth inhibition, 48 h
786-0 = test system: 786-0
NCI-H460 = test system: NCI-H460
EKVX = test system: EKVX
A498 = test system: A498
UACC-62 = test system: UACC-62
OVCAR-4 = test system: OVCAR-4
HT-29 = test system: HT-29
BT-549 = test system: BT-549
SF-268 = test system: SF-268
SF-539 = test system: SF-539
RXF 393 = test system: RXF 393
HCT-15 = test system: HCT-15
SR = test system: SR
M14 = test system: M14
MDA-MB-435 = test system: MDA-MB-435
SNB-75 = test system: SNB-75
MCF7 = test system: MCF7
OVCAR-5 = test system: OVCAR-5
U-251 = test system: U-251
UO-31 = test system: UO-31

Row | SMILES | GI50 (786-0) | GI50 (NCI-H460) | GI50 (EKVX) | GI50 (A498) | GI50 (UACC-62) | GI50 (OVCAR-4) | GI50 (HT-29) | GI50 (BT-549) | GI50 (SF-268) | GI50 (SF-539) | GI50 (RXF 393) | GI50 (HCT-15) [µM] | GI50 (SR) | GI50 (M14) | GI50 (MDA-MB-435) | GI50 (SNB-75) | GI50 (MCF7) | GI50 (OVCAR-5) | GI50 (U-251) | GI50 (UO-31)
1 | COC1=CC(=O)c2c(cc(COP(=O)(N(C)CCBr)N(C)CCBr)n2C)C1=O | < 0.0204 µM (active) | 0.0582 µM (active) | 2.03 µM (inactive) | 1.97 µM (inactive) | 0.414 µM (active) | 5.32 µM (inactive) | 0.0413 µM (active) | 1.38 µM (inactive) | 0.183 µM (active) | < 0.0178 µM (active) | 0.229 µM (active) | 0.491 | < 0.01 µM (active) | 0.614 µM (active) | 1.09 µM (active) | 0.102 µM (active) | < 0.0182 µM (active) | 0.583 µM (active) | 0.0419 µM (active) | –
2 | Cc1cc(S(=O)(=O)/N=C(\NN)Nc2ccc(Cl)cc2)c(S)cc1Cl | 6.34 µM (inactive) | 4.46 µM (inactive) | 5.16 µM (inactive) | 17.1 µM (inactive) | 1.5 µM (inactive) | 13.2 µM (inactive) | 16.1 µM (inactive) | 10.8 µM (inactive) | 15.6 µM (inactive) | 14.1 µM (inactive) | 28.6 µM (inactive) | 1.14 | 3.76 µM (inactive) | 8.65 µM (inactive) | 8.02 µM (inactive) | 6.49 µM (inactive) | 14.8 µM (inactive) | 1.81 µM (inactive) | 6.87 µM (inactive) | 5.58 µM (inactive)
3 | O=c1c(-c2ccc(O)cc2)coc2cc(OC3OC(CO)C(O)C(O)C3O)cc(O)c12 (configuration not stated) | 75.5 µM (inactive) | 46.9 µM (inactive) | 38.8 µM (inactive) | > 100 µM (inactive) | 81.3 µM (inactive) | > 10 µM (inactive) | > 100 µM (inactive) | 58.5 µM (inactive) | 41.7 µM (inactive) | 31.1 µM (inactive) | 40 µM (inactive) | > 100 | 30.3 µM (inactive) | > 10 µM (inactive) | > 10 µM (inactive) | 35.7 µM (inactive) | > 10 µM (inactive) | > 10 µM (inactive) | > 10 µM (inactive) | 22.2 µM (inactive)
4 | CC(=O)OCC1OC(NC(=S)Nn2c(=O)[nH]c3ccccc3c2=O)C(OC(C)=O)C(OC(C)=O)C1OC(C)=O (configuration not stated) | > 100 µM (inactive) | > 100 µM (inactive) | > 100 µM (inactive) | > 100 µM (inactive) | > 100 µM (inactive) | – | > 100 µM (inactive) | > 100 µM (inactive) | > 100 µM (inactive) | > 100 µM (inactive) | > 100 µM (inactive) | > 100 | 64.9 µM (inactive) | > 100 µM (inactive) | > 100 µM (inactive) | > 100 µM (inactive) | > 100 µM (inactive) | > 100 µM (inactive) | > 100 µM (inactive) | > 100 µM (inactive)
5 | Cc1nc2ccccc2c(=O)n1NC(=S)Nc1ccc(Cl)cc1[N+](=O)[O-] | > 100 µM (inactive) | > 100 µM (inactive) | 36.2 µM (inactive) | > 100 µM (inactive) | > 100 µM (inactive) | > 100 µM (inactive) | > 100 µM (inactive) | > 100 µM (inactive) | > 100 µM (inactive) | > 100 µM (inactive) | > 100 µM (inactive) | > 100 | > 100 µM (inactive) | > 100 µM (inactive) | > 100 µM (inactive) | > 78.3 µM (inactive) | > 100 µM (inactive) | – | > 100 µM (inactive) | > 55.5 µM (inactive)
6 | CC(=O)C1=C(C)N(c2ccc(C)cc2)C2(O)C3=C(C(=O)c4ccccc4C3=O)C(O)=CC12Cl (configuration not stated) | 25.4 µM (inactive) | 20.9 µM (inactive) | 54.1 µM (inactive) | 3.15 µM (inactive) | 5.11 µM (inactive) | 17.1 µM (inactive) | 22.3 µM (inactive) | 15 µM (inactive) | 23.6 µM (inactive) | 12.2 µM (inactive) | 9.73 µM (inactive) | 19.8 | 7.06 µM (inactive) | 40.7 µM (inactive) | 3.79 µM (inactive) | 21.9 µM (inactive) | 12.1 µM (inactive) | 25.5 µM (inactive) | 11.7 µM (inactive) | 11.1 µM (inactive)
7 | C#CCOC(=O)C(N)CCCNC(=N)N (configuration not stated) | > 100 µM (inactive) | > 100 µM (inactive) | > 100 µM (inactive) | > 100 µM (inactive) | – | > 100 µM (inactive) | > 100 µM (inactive) | > 100 µM (inactive) | > 100 µM (inactive) | > 100 µM (inactive) | > 100 µM (inactive) | > 100 | > 100 µM (inactive) | > 100 µM (inactive) | > 100 µM (inactive) | > 100 µM (inactive) | > 100 µM (inactive) | > 100 µM (inactive) | > 100 µM (inactive) | > 100 µM (inactive)
8 | CCN(CC)C1Oc2cc3c(cc2C(c2ccc(OC)cc2)C1C)OCO3 (configuration not stated) | 21.7 µM (inactive) | 17.1 µM (inactive) | 18.3 µM (inactive) | 19.7 µM (inactive) | 19.1 µM (inactive) | – | 18.7 µM (inactive) | 20.8 µM (inactive) | 17.3 µM (inactive) | 20.2 µM (inactive) | 18.9 µM (inactive) | 18.9 | 12.5 µM (inactive) | 21.2 µM (inactive) | 18.9 µM (inactive) | 20.3 µM (inactive) | 20.9 µM (inactive) | 26.2 µM (inactive) | 22.2 µM (inactive) | 19.7 µM (inactive)
9 | CCN1c2nc3ccccc3nc2N(CC)c2nc3ccccc3nc21 | 46.1 µM (inactive) | 32.9 µM (inactive) | 19.1 µM (inactive) | 57.3 µM (inactive) | 39.2 µM (inactive) | – | 39.5 µM (inactive) | 80.5 µM (inactive) | 32.1 µM (inactive) | 25.8 µM (inactive) | 55.5 µM (inactive) | 34.1 | 12.8 µM (inactive) | 61.9 µM (inactive) | 42.3 µM (inactive) | > 10 µM (inactive) | 96.4 µM (inactive) | > 100 µM (inactive) | 48 µM (inactive) | 96.6 µM (inactive)
10 | CCOC(=O)NN(C(=O)OCC)c1c(C)cc(C)cc1C | > 100 µM (inactive) | > 100 µM (inactive) | > 100 µM (inactive) | > 100 µM (inactive) | > 100 µM (inactive) | > 100 µM (inactive) | > 100 µM (inactive) | > 100 µM (inactive) | > 100 µM (inactive) | > 100 µM (inactive) | 21 µM (inactive) | > 100 | > 100 µM (inactive) | > 100 µM (inactive) | > 100 µM (inactive) | > 100 µM (inactive) | > 100 µM (inactive) | > 100 µM (inactive) | > 100 µM (inactive) | 98.9 µM (inactive)
11 | C[N+](C)([O-])CCC=C1c2ccccc2CCc2ccccc21 | 4.79 µM (inactive) | 31.3 µM (inactive) | 24.8 µM (inactive) | 21.5 µM (inactive) | 17.1 µM (inactive) | 28.2 µM (inactive) | 22.3 µM (inactive) | 41.9 µM (inactive) | 21.5 µM (inactive) | 36.9 µM (inactive) | 20.5 µM (inactive) | 27.7 | 16.7 µM (inactive) | 31 µM (inactive) | 15.7 µM (inactive) | 29.3 µM (inactive) | 19.9 µM (inactive) | 33.3 µM (inactive) | 18.2 µM (inactive) | –
12 | CCCCCCCCCCCCC(O)[C@H]1CC[C@H](C(O)CCCCCC(=O)CCCCC2CC(C(C)=O)C(=O)O2)O1 (some centres not stated) | 12.9 µM (inactive) | 3.03 µM (inactive) | 5.69 µM (inactive) | 13.3 µM (inactive) | 4.67 µM (inactive) | 4.09 µM (inactive) | 6.73 µM (inactive) | 15 µM (inactive) | 12.3 µM (inactive) | 14.1 µM (inactive) | 7.6 µM (inactive) | 8.18 | 0.0264 µM (active) | 8.77 µM (inactive) | 8.34 µM (inactive) | 10.5 µM (inactive) | 3.47 µM (inactive) | 18.4 µM (inactive) | 8.87 µM (inactive) | 8.97 µM (inactive)
13 | CC(=O)O[C@H]1C(=O)[C@@]2(C)[C@H]([C@H](OC(=O)c3ccccc3)[C@]3(O)C[C@H](OC(=O)[C@H](O)[C@@H](NC(=O)c4cccc(N=[N+]=[N-])c4)c4ccccc4)C(C)=C1C3(C)C)[C@]1(OC(C)=O)CO[C@@H]1C[C@@H]2O | 0.0179 µM (active) | 0.00859 µM (active) | > 7.59 µM (inactive) | 0.0408 µM (active) | 0.00731 µM (active) | 6.05 µM (inactive) | < 0.0025 µM (active) | 0.0364 µM (active) | 0.0289 µM (active) | < 0.0025 µM (active) | 0.045 µM (active) | 0.662 | < 0.0025 µM (active) | 0.00908 µM (active) | < 0.0025 µM (active) | 0.0173 µM (active) | < 0.0025 µM (active) | 0.00893 µM (active) | 0.00629 µM (active) | 1.33 µM (inactive)
14 | CCOC(=O)Nc1cc2c(c(N)n1)N=C(c1ccccc1)[C@H](C)N2 [MIVOBULIN ISETHIONATE] | 0.00215 µM (active) | < 0.0001 µM (active) | 0.0653 µM (active) | 0.0299 µM (active) | < 0.0001 µM (active) | 0.00363 µM (active) | < 0.0001 µM (active) | 0.01 µM (active) | < 0.0001 µM (active) | – | < 0.0001 µM (active) | 0.0324 | < 0.0001 µM (active) | 0.00011 µM (active) | < 0.0001 µM (active) | 0.000215 µM (active) | < 0.0001 µM (active) | 23 µM (inactive) | 0.0369 µM (active) | 0.000303 µM (active)

Source: ChEMBL document CHEMBL1201862, “PubChem BioAssay data set” (2004)
